Experimental data as given in ChEMBL document CHEMBL3867463, “Cytotoxic lanostanes from fruits of Garcinia wallichii Choisy (Guttiferae)” (Bioorg Med Chem Lett, 2016).

Key:
[1] = Cytotoxicity against human colon cancer cells by SRB method; assay type: functional; conditions: Cancer cell lines, read-out: ED50 (the source's name)
[2] = Cytotoxicity against human MCF7 cells by SRB method; assay type: functional; conditions: read-out: ED50 (the source's name)
[3] = Cytotoxicity against human KB cells by SRB method; assay type: functional; conditions: read-out: ED50 (the source's name)
[4] = Cytotoxicity against rat ASK cells by SRB method; assay type: functional; conditions: read-out: ED50 (the source's name)
[5] = Cytotoxicity against human HEK293 cells by SRB method; assay type: toxicity, cell-based; conditions: read-out: ED50 (the source's name)
[6] = Cytotoxicity against human HT-29 cells by SRB method; assay type: functional; conditions: read-out: ED50 (the source's name)
[7] = Cytotoxicity against human A549 cells by SRB method; assay type: functional; conditions: read-out: ED50 (the source's name)
[8] = Cytotoxicity against mouse P388 cells by SRB method; assay type: functional; conditions: read-out: ED50 (the source's name)

Compound	EC50 [1] [µM]	EC50 [2] [µM]	EC50 [3] [µM]	EC50 [4] [µM]	CC50 [5] [µM]	EC50 [6] [µM]	EC50 [7] [µM]	EC50 [8] [µM]
C/C(=C\C=C\[C@@H](C)[C@H]1CC[C@@]2(C)[C@@H]3CC[C@H]4C(C)(C)C(=O)CC[C@]4(C)[C@@]3(O)CC[C@]12C)C(=O)O	> 50	> 50	> 50	> 50	> 50	> 50	> 50	> 50
COC(=O)/C(C)=C/C=C/[C@@H](C)[C@H]1CC[C@@]2(C)[C@@H]3CC[C@H]4C(C)(C)[C@]5(O)CC[C@]4(CO5)[C@@]3(O)CC[C@]12C	> 50	> 50	> 50	> 50	> 50	> 50	> 50	> 50
C/C(=C\C=C\[C@@H](C)[C@H]1CC[C@@]2(C)[C@@H]3CC[C@H]4C(C)(C)[C@]5(O)CC[C@]4(CO5)[C@@]3(O)CC[C@]12C)C(=O)O	4.73	6.19	4.79	7.63	6.89	5.39	5.69	3.91
C/C(=C\CC[C@@H](C)[C@H]1CC[C@@]2(C)[C@@H]3CC[C@H]4C(C)(C)[C@@H](O)CC[C@]4(C)[C@@]3(O)CC[C@]12C)C(=O)O	> 50	> 50	29.9	> 50	> 50	23.7	35.1	24.1
COC(=O)/C(C)=C/C=C/[C@@H](C)[C@H]1CC[C@@]2(C)[C@@H]3CC[C@H]4C(C)(C)C(=O)CC[C@]4(C)C3=CC[C@]12C	> 50	> 50	> 50	> 50	> 50	> 50	> 50	> 50
C/C(=C\CC[C@@H](C)[C@H]1CC[C@@]2(C)[C@@H]3CC[C@H]4C(C)(C)C(=O)CC[C@]4(C)[C@@]3(O)CC[C@]12C)C(=O)O	> 50	> 50	> 50	> 50	> 50	> 50	> 50	> 50
Cc1c2ccncc2c(C)c2c1[nH]c1ccccc12 [ELLIPTECINE]	2.19	2.11	2.03	2.31	2.03	2.43	1.26	2.15
